# Entries after “also recorded” stand apart in the source; their conditions may differ. Like-named read-outs stand apart in the source and are kept apart here.
# Experiments:
# Vldlr^−/− mice = test: In vivo anti-angiogenesis effect on Vldlr−/− mice (relative number of retinal lesions, fluorescein angiography)
# [1] = system: Human umbilical vein endothelial cells (HUVECs); test: Inhibitory effects on VEGF-activated endothelial cell proliferation (AlamarBlue); format: cell-based; conditions: HUVEC, 3 days, read-out: IC50, anti-proliferative effect
# Procedure: Human umbilical vein endothelial cells (HUVECs) were obtained from Lonza Biologics Tuas Pte Ltd (Singapore), and cultured in the endothelial cell basal medium (EBM-2) supplemented with EGM-2 SingleQuots (Lonza Biologics Tuas Pte Ltd, Singapore). HUVECs were seeded in 96-well plates (5×10^3 cells/well, n=5) and cultured for one day for cell attachment.
# After 3 days, the cell viability was measured by using AlamarBlue® reagent (Life Technologies, USA) according to the manufacturer's protocol. Briefly, the medium was replaced by phenol red-free media containing 10% AlamarBlue® reagent. After incubation for 4 hours at 37° C., fluorescence intensity (λex=549 nm and λem=587 nm) was measured by a microplate reader (Tecan Group Ltd., Switzerland). Results were expressed as a percentage of viable cells relative to untreated cells.
# The CI values of HA-EGCG and drug combination were calculated with the following equation using the CompuSyn software: […]
# AMD patients [2] = conditions: oral, cited from earlier work
# AMD patients [3] = conditions: cited from earlier work
compound,measurement,setting,value
"CCN(CC)CCNC(=O)c1c(C)[nH]c(/C=C2\C(=O)Nc3ccc(F)cc32)c1C [SU, Sunitinib malate]",progression of retinal lesions,"Vldlr^−/− mice; topical, SU 0.50 mg/mL, 10 μL, 3×/day, 28 days",no efficacy
same,IC50,"[1]; Homo sapiens, 72 h, VEGF-activated conditions",4.32 µM
same,IC50,"[1]; Homo sapiens, 72 h, normal growth conditions",6.59 µM
Cc1[nH]c(/C=C2\C(=O)Nc3ccc(F)cc32)c(C)c1C(=O)N[C@H]1CCN(C(=O)N(C)C)C1 [Vorolanib],AMD patients with improved visual acuity,"AMD patients [2]; phase 1, completed 24 weeks treatment",24 out of 25
same,participants who discontinued due to severe systemic adverse effects,AMD patients [2]; phase 1,17%
same,visual acuity compared to placebo,"AMD patients [2]; phase 2, at 52 weeks",did not improve visual acuity
Aflibercept,CNV inhibitory effect,"Vldlr^−/− mice; IVT, 2.0 μg/0.5 μL, 1× at day 0",observed only in the early stages of treatment and diminished over time; also recorded: effective only in the first 7 days
same,retinal lesion development,"Vldlr^−/− mice; topical, AF 0.2 mg/mL or equivalent HA-EGCG/chitosan, 10 μL, 3×/day, 31 days",failed to suppress the lesion progression
same,IC50,[1]; VEGF-activated conditions,> 0.21 µM
Ranibizumab,AMD patients with improved visual acuity,"AMD patients [3]; monthly IVT injection, 0.5 mg",33.8%
same,incidence of increased intraocular pressure,AMD patients [3]; two year treatment,24%
same,incidence of intraocular inflammation,AMD patients [3]; two year treatment,18%
